For 48 compounds, IC50 results are on record in US8431596B2 (Cancer Research Technology Limited, priority 2007, dated 2013).

Some results are limits rather than exact numbers.

The assay addresses T1, AXL (human catalytic domain) (Homo sapiens, UniProt P30530).
T1 construct: purchased Upstate Ltd. 14-512
T1 sequence (P30530 473-894): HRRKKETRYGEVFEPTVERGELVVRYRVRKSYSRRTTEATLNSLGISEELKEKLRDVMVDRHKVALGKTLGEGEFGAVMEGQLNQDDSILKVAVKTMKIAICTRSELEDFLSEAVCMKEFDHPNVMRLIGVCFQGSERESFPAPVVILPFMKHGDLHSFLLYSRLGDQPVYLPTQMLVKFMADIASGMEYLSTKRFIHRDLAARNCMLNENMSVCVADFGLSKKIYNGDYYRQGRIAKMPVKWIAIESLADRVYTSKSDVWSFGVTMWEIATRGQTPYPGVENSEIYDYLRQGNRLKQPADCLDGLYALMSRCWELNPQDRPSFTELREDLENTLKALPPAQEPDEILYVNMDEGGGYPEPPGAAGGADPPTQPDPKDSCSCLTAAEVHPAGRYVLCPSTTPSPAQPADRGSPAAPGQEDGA
The experiment in a line: AXL (human catalytic domain) Enzyme Activity Assay (IMAP fluorescence polarisation). The assay is classed as biochemical. In short, it runs like this:
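IMAP FP readout (Ex485/Em535, after overnight binding) measured inhibition of the human AXL catalytic domain (aa473-894, 15 nM final) acting on 100 nM 5FAM-CSK-tide at 150 μM ATP, equal to KM. Reactions ran 60 min at room temperature in pH 7.0 HEPES buffer; IC50 from 10-point curves.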
A general note: In fluorescence polarisation assays a small probe gives low polarisation when free and higher when bound to something large.

Where [1] appears, read: first data set, recombinant AXL isoform 1 aa473-894, 150 μM ATP.
Setting [2] is: further data set (WW-001 through WW-169, XX-001 through XX-469, YY-001 through YY-016, ZZ-001 through ZZ-003), 150 μM ATP.

Turning to `CN(C)CCNC(=O)c1cccc(Nc2nc3cccc(-c4ccc5occc5c4)n3n2)c1` [XX-085], the IC50 (usually the concentration at which inhibition is half-maximal) was less than 1000 nM under setting [1] and not above 100 nM under setting [2].

In the case of `CNCCOc1cccc(Nc2nc3cccc(-c4ccc5occc5c4)n3n2)c1` [XX-086], the IC50 is, setting by setting: under setting [1], less than 1000 nM; under setting [2], not above 100 nM.

Take `CN(C)CCNC(=O)c1ccc(Nc2nc3cccc(-c4ccc5c(c4)OCO5)n3n2)cc1` [XX-087]: the IC50 under setting [1] is less than 1000 nM and the IC50 under setting [2] is 100 to 1000 nM.

For the compound `CNCCOc1cccc(Nc2nc3cccc(-c4ccc5c(c4)OCO5)n3n2)c1` [XX-088], the IC50 under setting [1] was less than 1000 nM and the IC50 under setting [2] is 100 to 1000 nM.

As to `CCOC(=O)c1cccc(-c2cccc3nc(Nc4ccc(OCCN5CCCC5)cc4)nn23)c1` [XX-089], under setting [2], the IC50 lay within 1000 to 10000 nM.

The compound `OCc1cccc(-c2cccc3nc(Nc4ccc(OCCN5CCCC5)cc4)nn23)c1` [XX-090, (3-{2-[4-(2-Pyrrolidin-1-yl-ethoxy)-phenylamino]-[1,2,4]triazolo[1,5-a]pyridin-5-yl}-phenyl)-methanol] registered an IC50 under setting [2] not above 100 nM.

Under setting [2], `CS(=O)(=O)OCCn1cc(-c2cccc3nc(Nc4ccc(OCCN5CCCC5)cc4)nn23)cn1` [XX-091, Methanesulfonic acid 2-(4-{2-[4-(2-pyrrolidin-1-yl-ethoxy)-phenylamino]-[1,2,4]triazolo[1,5-a]pyridin-5-yl}-pyrazol-1-yl)-ethyl ester] yielded an IC50 of 100 to 1000 nM.

Consider `CC(C)(C)CNC(=O)Cn1cc(-c2cccc3nc(Nc4ccc(OCCN5CCCC5)cc4)nn23)cn1` [XX-092, N-(2,2-Dimethyl-propyl)-2-(4-{2-[4-(2-pyrrolidin-1-yl-ethoxy)-phenylamino]-[1,2,4]triazolo[1,5-a]pyridin-5-yl}-pyrazol-1-yl)-acetamide], for which the IC50 under setting [2] is 1000 to 10000 nM.

The compound `CN1CCOc2cc(-c3cccc4nc(Nc5ccc(OCCN6CCCC6)cc5)nn34)ccc21` [XX-093] showed an IC50 under setting [2] of 100 to 1000 nM.

On to `Cc1cc(-c2cccc3nc(Nc4ccc(OCCN5CCCC5)cc4)nn23)ccc1N(C)C` [XX-094], for which the IC50 under setting [2] is 100 to 1000 nM.

Under setting [2], `COc1cc(Nc2nc3cccc(-c4ccc5c(c4)OCCN5C)n3n2)ccc1OCCN1CCCC1` [XX-095] returned an IC50 of 100 to 1000 nM.

Turning to `CCN(CC)CCOc1cccc(Nc2nc3cccc(-c4ccc5c(c4)OCCN5C)n3n2)c1` [XX-096], the IC50 under setting [2] lay within 100 to 1000 nM.

In turn, `c1cc(-c2ccc3c(c2)OCCO3)n2nc(Nc3cnc(OCCN4CCCC4)nc3)nc2c1` [XX-097] showed an IC50 under setting [2] of 100 to 1000 nM.

As for `c1cc(-c2ccc3c(c2)OCCO3)n2nc(Nc3cnc(OCCN4CCCCC4)nc3)nc2c1` [XX-098], under setting [2], the IC50 was 1000 to 10000 nM.

In the case of `c1cc(-c2ccc3c(c2)OCCO3)n2nc(Nc3ccnc(OCCN4CCCC4)c3)nc2c1` [XX-099], the IC50 under setting [2] lay within 100 to 1000 nM.

The compound `c1cc(Nc2nc3cccc(-c4ccc5c(c4)OCCO5)n3n2)cc(OCCN2CCCC2)c1` [XX-100] gave an IC50 under setting [2] of 100 to 1000 nM.

Compound `c1cc(-c2ccc3c(c2)OCCO3)n2nc(Nc3ccnc(OCCN4CCCCC4)c3)nc2c1` [XX-101] displayed an IC50 under setting [2] not above 100 nM.

`c1cc(-c2ccc3c(c2)OCCO3)n2nc(Nc3ccc(OCCN4CCCC4)nc3)nc2c1` [XX-102] showed an IC50 under setting [2] of 100 to 1000 nM.

For the compound `CNCCOc1ccc(Nc2nc3cccc(-c4ccc5c(c4)OCCO5)n3n2)cc1C` [XX-103], the IC50 under setting [2] was 100 to 1000 nM.

`O=C(CCN1CCCC1)Nc1ccc(Nc2nc3cccc(-c4ccc5c(c4)OCCO5)n3n2)cc1` [XX-104] registered an IC50 under setting [2] of 100 to 1000 nM.

In turn, `c1cc(-c2ccc3c(c2)OCCO3)n2nc(Nc3ccc(NCCN4CCCC4)cc3)nc2c1` [XX-105] displayed a half-inhibitory concentration (IC50) under setting [2] of 100 to 1000 nM.

The compound `c1cc(-c2ccc3c(c2)OCCO3)n2nc(Nc3ccc(OCCN4CCCCC4)nc3)nc2c1` [XX-106] gave an IC50 under setting [2] of 100 to 1000 nM.

Regarding `O=C(CN1CCCC1)Nc1cccc(Nc2nc3cccc(-c4ccc5c(c4)OCCO5)n3n2)c1` [XX-107], the IC50 under setting [2] lay within 100 to 1000 nM.

With `NCCSc1ccc(Nc2nc3cccc(-c4ccc5c(c4)OCCO5)n3n2)cc1` [XX-108], the IC50 under setting [2] is not above 100 nM.

Consider `O=C(CCN1CCCC1)Nc1cccc(Nc2nc3cccc(-c4ccc5c(c4)OCCO5)n3n2)c1` [XX-109], for which the 50% inhibitory concentration (IC50) under setting [2] was in the range of 100 to 1000 nM.

`O=C(NCCN1CCCC1)c1ccc(Nc2nc3cccc(-c4ccc5c(c4)OCCO5)n3n2)cc1` [XX-110] returned an IC50 under setting [2] not above 100 nM.

As to `CN1CCN(C(=O)c2ccc(Nc3nc4cccc(-c5ccc6c(c5)OCCO6)n4n3)cc2)CC1` [XX-111], under setting [2], the IC50 fell in the range of 100 to 1000 nM.

In turn, `COc1cc(Nc2nc3cccc(-c4ccc5c(c4)OCCO5)n3n2)ccc1OCCN(C)C` [XX-112] yielded an IC50 under setting [2] of 100 to 1000 nM.

Regarding `O=C(NCCN1CCCC1)c1cccc(Nc2nc3cccc(-c4ccc5c(c4)OCCO5)n3n2)c1` [XX-113], the IC50 under setting [2] is not above 100 nM.

Take `CN1CCN(C(=O)c2cccc(Nc3nc4cccc(-c5ccc6c(c5)OCCO6)n4n3)c2)CC1` [XX-114]: the IC50 under setting [2] lay within 100 to 1000 nM.

With `CN(C)CCCc1cccc(Nc2nc3cccc(-c4ccc5c(c4)OCCO5)n3n2)c1` [XX-115, [5-(2,3-Dihydro-benzo[1,4]dioxin-6-yl)-[1,2,4]triazolo[1,5-a]pyridin-2-yl]-[3-(3-dimethylamino-propyl)-phenyl]-amine], the IC50 under setting [2] lay within 100 to 1000 nM.

For the compound `c1cc(NCCN2CCCC2)cc(Nc2nc3cccc(-c4ccc5c(c4)OCCO5)n3n2)c1` [XX-116], under setting [2], the IC50 lay in the range of 100 to 1000 nM.

In turn, `c1cc(NCCCN2CCCC2)cc(Nc2nc3cccc(-c4ccc5c(c4)OCCO5)n3n2)c1` [XX-117] had an IC50 under setting [2] of 100 to 1000 nM.

Under setting [2], `CC(CN)Oc1ccc(Nc2nc3cccc(-c4ccc5c(c4)OCCO5)n3n2)cc1` (stereo not shown) [XX-118] yielded an IC50 not above 100 nM.

Take `CCN(CC)CC(=O)Nc1ccc(Nc2nc3cccc(-c4ccc5c(c4)OCCO5)n3n2)cc1` [XX-119]: the IC50 under setting [2] was in the range of 100 to 1000 nM.

For the compound `CCN(CC)CC(=O)Nc1cccc(Nc2nc3cccc(-c4ccc5c(c4)OCCO5)n3n2)c1` [XX-120], the half-maximal inhibitory concentration (IC50) under setting [2] is 100 to 1000 nM.

For `O=C(CN1CCCCC1)Nc1cccc(Nc2nc3cccc(-c4ccc5c(c4)OCCO5)n3n2)c1` [XX-121], under setting [2], the IC50 was in the range of 100 to 1000 nM.

The compound `CCN(CC)CCC(=O)Nc1ccc(Nc2nc3cccc(-c4ccc5c(c4)OCCO5)n3n2)cc1` [XX-122] had an IC50 under setting [2] of 100 to 1000 nM.

In the case of `O=C(CCN1CCCCC1)Nc1ccc(Nc2nc3cccc(-c4ccc5c(c4)OCCO5)n3n2)cc1` [XX-123], the IC50 under setting [2] lay within 100 to 1000 nM.

In the case of `CCN(CC)CCC(=O)Nc1cccc(Nc2nc3cccc(-c4ccc5c(c4)OCCO5)n3n2)c1` [XX-124], the half-inhibitory concentration (IC50) under setting [2] is 100 to 1000 nM.

Under setting [2], `O=C(CCN1CCCCC1)Nc1cccc(Nc2nc3cccc(-c4ccc5c(c4)OCCO5)n3n2)c1` [XX-125] returned an IC50 of 100 to 1000 nM.

Compound `CN(C)CC(C)(C)Oc1ccc(Nc2nc3cccc(-c4ccc5c(c4)OCCO5)n3n2)cc1` [XX-126] returned an IC50 under setting [2] of 100 to 1000 nM.

For the compound `CCN(CC)CCNc1ccc(Nc2nc3cccc(-c4ccc5c(c4)OCCO5)n3n2)cc1` [XX-127], under setting [2], the IC50 was not above 100 nM.

With `CCN(CC)CCNc1cccc(Nc2nc3cccc(-c4ccc5c(c4)OCCO5)n3n2)c1` [XX-128], under setting [2], the IC50 lay in the range of 100 to 1000 nM.

In the case of `c1cc(-c2ccc3c(c2)OCCO3)n2nc(Nc3ccc(NCCCN4CCCCC4)cc3)nc2c1` [XX-129], under setting [2], the IC50 was in the range of 100 to 1000 nM.

As for `CCN(CC)CCCNc1cccc(Nc2nc3cccc(-c4ccc5c(c4)OCCO5)n3n2)c1` [XX-130], under setting [2], the IC50 was not above 100 nM.

In turn, `c1cc(NCCCN2CCCCC2)cc(Nc2nc3cccc(-c4ccc5c(c4)OCCO5)n3n2)c1` [XX-131] yielded a half-inhibitory concentration (IC50) under setting [2] not above 100 nM.

Take `COc1ccc(Nc2nc3cccc(-c4ccc5c(c4)OCCO5)n3n2)cc1OCCN1CCCC1` [XX-132]: the IC50 under setting [2] was not above 100 nM.
